According to US11618747B2, “LXR modulators with bicyclic core moiety” (OrsoBio, Inc., priority 2018, dated 2023):
Like-named read-outs stand apart in the source and are kept apart here.

Legend:
[1] = target: T1, ligand-binding domain (LBD) of LXRα (Homo sapiens, UniProt Q13133); test: LXR Gal4 reporter transient transfection assay (LBD-M2H Gal4α); assay type: cell-based; settings: HEK293 cells
T1 construct: expressed in transfected cells; host or cells: HEK293
T1 sequence (Q13133 155-447): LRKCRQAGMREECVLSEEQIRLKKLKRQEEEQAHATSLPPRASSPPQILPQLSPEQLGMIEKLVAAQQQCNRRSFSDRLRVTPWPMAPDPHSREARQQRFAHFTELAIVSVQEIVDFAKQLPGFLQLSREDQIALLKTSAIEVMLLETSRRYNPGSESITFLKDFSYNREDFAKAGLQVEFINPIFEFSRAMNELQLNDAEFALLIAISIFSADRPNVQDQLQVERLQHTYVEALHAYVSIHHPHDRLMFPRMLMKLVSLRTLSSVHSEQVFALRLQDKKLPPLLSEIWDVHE
Summary of the method: (§1)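 Cells (HEK293, 3.5×10^4/well) were plated 16-20 h, transfected with LXR, cofactor and reporter plasmids, treated with compound after 4 h, and lysed after a further 16 h. Interaction of LXR constructs with SRC1 or NCoR is detected by GAL4-driven Firefly luciferase.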

[2] = target: T2, full length (FL) LXRα (Homo sapiens, UniProt Q13133); test: LXR Gal4 reporter transient transfection assay (FL-M2H Gal4α); assay type: cell-based; settings: HEK293 cells
T2 construct: the full length (FL) proteins of LXRα (amino acids 1-447); NP005684; expressed in transfected cells; host or cells: HEK293
T2 sequence (Q13133 1-447): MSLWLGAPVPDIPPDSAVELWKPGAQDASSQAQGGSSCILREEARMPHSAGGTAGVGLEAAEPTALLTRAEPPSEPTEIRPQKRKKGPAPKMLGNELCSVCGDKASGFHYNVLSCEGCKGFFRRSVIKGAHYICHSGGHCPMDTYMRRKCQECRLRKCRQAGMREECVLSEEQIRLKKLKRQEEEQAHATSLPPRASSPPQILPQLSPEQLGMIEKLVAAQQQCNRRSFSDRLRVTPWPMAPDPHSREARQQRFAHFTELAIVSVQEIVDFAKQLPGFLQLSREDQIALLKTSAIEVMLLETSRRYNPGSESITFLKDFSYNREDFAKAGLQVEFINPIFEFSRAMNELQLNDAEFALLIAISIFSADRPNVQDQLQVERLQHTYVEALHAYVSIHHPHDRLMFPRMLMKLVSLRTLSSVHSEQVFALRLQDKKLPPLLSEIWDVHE
Summary of the method: as §1

[3] = target: T3, full length (FL) LXRβ (Homo sapiens, UniProt P55055, DUP175-175); test: LXR Gal4 reporter transient transfection assay (FL-M2H Gal4β); assay type: cell-based; settings: HEK293 cells
T3 construct: the full length (FL) proteins of LXRα (amino acids 1-447); NP005684; NP009052; expressed in transfected cells; host or cells: HEK293
T3 sequence (P55055 with tags, fused parts or gaps DUP175-175): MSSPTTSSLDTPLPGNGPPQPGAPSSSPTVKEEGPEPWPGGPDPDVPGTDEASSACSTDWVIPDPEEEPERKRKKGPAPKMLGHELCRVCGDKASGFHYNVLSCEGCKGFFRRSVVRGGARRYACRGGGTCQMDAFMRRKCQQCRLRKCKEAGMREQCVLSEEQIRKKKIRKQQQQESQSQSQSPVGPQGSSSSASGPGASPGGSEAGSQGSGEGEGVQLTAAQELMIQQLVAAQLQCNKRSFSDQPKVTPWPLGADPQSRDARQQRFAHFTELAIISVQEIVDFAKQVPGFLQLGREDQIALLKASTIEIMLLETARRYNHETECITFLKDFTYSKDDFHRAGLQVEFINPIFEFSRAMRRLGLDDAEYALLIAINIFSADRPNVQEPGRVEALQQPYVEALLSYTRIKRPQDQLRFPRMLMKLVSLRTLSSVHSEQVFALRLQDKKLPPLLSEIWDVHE
Summary of the method: as §1

[4] = Pharmacokinetics in mice after single oral dosing (blood/plasma and liver exposure); assay type: in vivo, mice (C57/bl6/J); settings: 20 mg/kg single oral dose
Experimental: The pharmacokinetics of the compounds was assessed in mice after single dosing and oral administrations. Blood/plasma and liver exposure was measured via LC-MS.
The study design was as follows:
Animals: C57/bl6/J (Janvier) males
Diet: standard rodent chow
Animal handling: animals were withdrawn from food at least 12 h before administration
Design: single dose oral administration, n=3 animals per group
Sacrifice: at stated time point (4, 12 or 24 h) after administration
Bioanalytics: LC-MS of liver and blood/plasma samples

[5] = full length LXRα, read-out: FL-M2H Gal4α (EC50 range)
[6] = full length LXRβ, read-out: FL-M2H Gal4β (EC50 range)
[7] = LXRα LBD, read-out: LBD-M2H Gal4α (EC50 range)

| Compound | EC50 [2, 5] | EC50 [3, 6] | other results |
| --- | --- | --- | --- |
| Cc1ccc(S(=O)(=O)n2c(-c3cccc(N4CC(C(=O)O)C4)c3)c(-c3ccsc3C#N)c3cc(F)ccc32)cc1 [3/32] | 100 to 1000 nM | < 100 nM | LBD-M2H Gal4α efficacy (value in brackets) [1]: 103%; EC50 ([1]; read-out: LBD-M2H Gal4α potency): 106 nM |
| Cc1ccc(S(=O)(=O)n2c(-c3cccc(N4CC(C(=O)O)C4)c3)c(-c3ccsc3C#N)c3cc(F)c(F)cc32)cc1 [3/42] | 100 to 1000 nM | < 100 nM | EC50 [1, 7]: 100 to 1000 nM |
| Cc1ccc(S(=O)(=O)n2c(-c3cccc(N4CC(C(=O)O)C4)c3)c(-c3ccsc3C#N)c3cc(F)c(Cl)cc32)cc1 [3/43] | 100 to 1000 nM | < 100 nM | EC50 [1, 7]: 100 to 1000 nM |
| Cc1ccc(S(=O)(=O)n2c(-c3cccc(N4CC(C(=O)O)C4)c3)c(-c3ccsc3C#N)c3cc(Cl)ccc32)cc1 [3/44] | < 100 nM | < 100 nM | EC50 [1, 7]: < 100 nM |
| Cc1ccc(S(=O)(=O)n2c(-c3cccc(N4CC(C(=O)O)C4)c3)c(-c3ccsc3C#N)c3cc(C)ccc32)cc1 [3/46] | < 100 nM | < 100 nM | EC50 [1, 7]: < 100 nM |
| Cc1ccc(S(=O)(=O)n2c(-c3cccc(-c4ccc(C(=O)O)cc4Cl)c3)c(-c3ccsc3C#N)c3cc(F)ccc32)cc1 [3/48] | < 100 nM | < 100 nM | blood/plasma exposure (below LLOQ, LLOQ given) ([4]; time point 12 h): (1.2 ng/mL); liver exposure ([4]; time point 12 h): A (A: <300 nM) |
| O=C(O)c1ccc(-c2cccc(-c3c(-c4ccccc4C4COC4)c4cc(F)ccc4n3S(=O)(=O)c3ccc(C(F)F)cc3)c2)c(Cl)c1 [3/59] | < 100 nM | < 100 nM |  |
| Cc1ccc(S(=O)(=O)n2c(-c3cccc(C45CCC(C(=O)O)(CC4)CC5)c3)c(-c3ccsc3C#N)c3cc(F)ccc32)cc1 [3/64] | < 100 nM | < 100 nM |  |
| N#Cc1cccc(C#N)c1-c1c(-c2cccc(-c3c(F)cc(CC(=O)O)cc3F)c2)n(S(=O)(=O)c2ccc(C(F)F)cc2)c2ccc(F)cc12 [3/73] | < 100 nM | < 100 nM |  |
| Cc1ccc(S(=O)(=O)n2c(-c3cccc(-c4ccc(C(=O)O)cc4)c3)c(-c3ccsc3C#N)c3cc(F)ccc32)cc1 [5/3] |  | < 100 nM | blood/plasma exposure ([4]; time point 4 h): C (C: 100 nM to <300 nM); liver exposure ([4]; time point 4 h): C (C: 1 μM to ≤3 μM); liver/blood ratio ([4]; time point 4 h): C (C: 10 to ≤30) |
| CC(=O)NS(=O)(=O)c1ccc(-c2cccc(-c3c(-c4c(C#N)cccc4C#N)c4cc(F)ccc4n3S(=O)(=O)c3ccc(C(F)F)cc3)c2)c(Cl)c1 [8/8] | < 100 nM | < 100 nM |  |
| N#Cc1cccc(C#N)c1-c1c(-c2cccc(-c3ccc(C(=O)NCCS(=O)(=O)O)cc3Cl)c2)n(S(=O)(=O)c2ccc(C(F)F)cc2)c2ccc(F)cc12 [10/1] | < 100 nM | < 100 nM |  |
| CN(CCS(=O)(=O)O)C(=O)c1ccc(-c2cccc(-c3c(-c4c(C#N)cccc4C#N)c4cc(F)ccc4n3S(=O)(=O)c3ccc(C(F)F)cc3)c2)c(Cl)c1 [10/2] | < 100 nM | < 100 nM |  |
| N#Cc1nccnc1-c1c(-c2cccc(-c3cc(F)c(C(=O)O)cc3Cl)c2)n(S(=O)(=O)c2ccc(C(F)F)cc2)c2ccc(F)cc12 [11/11] | < 100 nM | < 100 nM |  |
| N#Cc1cccc(C#N)c1-c1c(-c2cccc(-c3ccc(C(=O)O)cc3Cl)c2)n(S(=O)(=O)c2ccc(C(F)F)cc2)c2ccc(F)cc12 [11/12] | < 100 nM | < 100 nM |  |
| O=C(O)c1ccc(-c2cccc(-c3c(-c4c(Cl)cccc4Cl)c4cc(F)ccc4n3S(=O)(=O)c3ccc(C(F)F)cc3)c2)c(Cl)c1 [11/13] | < 100 nM | < 100 nM |  |
| N#Cc1sccc1-c1c(-c2cccc(-c3ccc(C(=O)O)cc3Cl)c2)n(S(=O)(=O)c2ccc(C(F)(F)F)nc2)c2ccc(F)cc12 [11/16] | < 100 nM | < 100 nM |  |
| O=C(O)c1ccc(-c2cccc(-c3c(-c4ncccc4C(F)(F)F)c4cc(F)ccc4n3S(=O)(=O)c3ccc(C(F)F)cc3)c2)c(Cl)c1 [11/23] | < 100 nM | < 100 nM |  |
| N#Cc1cccnc1-c1c(-c2cccc(-c3ccc(C(=O)O)cc3Cl)c2)n(S(=O)(=O)c2ccc(C(F)F)cc2)c2ccc(F)cc12 [11/26] | < 100 nM | < 100 nM |  |
| COc1c(C(=O)O)ccc(-c2cccc(-c3c(-c4ccccc4C#N)c4cc(F)ccc4n3S(=O)(=O)c3ccc(C(F)F)cc3)c2)c1Cl [11/27] | < 100 nM | < 100 nM |  |
| N#Cc1ccccc1-c1c(-c2cccc(-c3ccc(C(=O)O)cc3Cl)c2)n(S(=O)(=O)c2ccc(C(F)F)cc2)c2ccc(F)cc12 [11/33] | < 100 nM | < 100 nM | FL-M2H Gal4α efficacy (value in brackets) [2]: 164%; EC50 ([2]; read-out: FL-M2H Gal4α potency): 1.3 nM; FL-M2H Gal4β efficacy (value in brackets) [3]: 130%; EC50 ([3]; read-out: FL-M2H Gal4β potency): 1.7 nM |
| N#Cc1cccc(C#N)c1-c1c(-c2cccc(-c3ccc(C(=O)O)cc3Cl)c2)n(S(=O)(=O)c2ccc(C(F)(F)F)nc2)c2ccc(F)cc12 [11/37] | < 100 nM | < 100 nM |  |
| N#Cc1ccccc1-c1c(-c2cccc(-c3ccc(C(=O)O)cc3Cl)c2)n(S(=O)(=O)c2ccc(C(F)F)cc2)c2cnccc12 [11/49] | < 100 nM | < 100 nM |  |
| N#Cc1cccc(C#N)c1-c1c(-c2cccc(-c3ccc(C(=O)O)cc3F)c2)n(S(=O)(=O)c2ccc(C(F)F)cc2)c2ccc(F)cc12 [11/51] | < 100 nM | < 100 nM |  |
| N#Cc1cccc(C#N)c1-c1c(-c2cccc(-c3c(F)cc(C(=O)O)cc3F)c2)n(S(=O)(=O)c2ccc(C(F)F)cc2)c2ccc(F)cc12 [11/53] | < 100 nM | < 100 nM |  |
| N#Cc1cccc(C#N)c1-c1c(-c2cccc(-c3ccc(C(=O)O)cc3Cl)c2)n(S(=O)(=O)C2CCC(F)(F)CC2)c2ccc(F)cc12 [11/63] | < 100 nM | < 100 nM |  |
| N#Cc1cccc(C#N)c1-c1c(-c2cccc(-c3cc(F)c(C(=O)O)cc3Cl)c2)n(S(=O)(=O)c2ccc(C(F)F)cc2)c2ccc(F)cc12 [11/65] | < 100 nM | < 100 nM |  |
| N#Cc1cccc(C#N)c1-c1c(-c2cccc(-c3ccc(C(=O)NCC(=O)O)cc3Cl)c2)n(S(=O)(=O)c2ccc(C(F)F)cc2)c2ccc(F)cc12 [21/3] | < 100 nM | < 100 nM |  |
| Cc1ccc(S(=O)(=O)n2c(-c3cccc(-c4ccc(C(=O)O)cc4)c3)c(-c3ccsc3C#N)c3cc(F)ccc32)cc1C [23/2] | < 100 nM | < 100 nM | blood/plasma exposure ([4]; time point 4 h): B (B: 300 nM to ≤1 μM); liver exposure ([4]; time point 4 h): D (D: >3 μM); liver/blood ratio ([4]; time point 4 h): C (C: 10 to ≤30) |
